Source: PMC5216056 (Nature Communications, 2017)
Read-outs that look alike come from different tables or passages of the source.

Columns and labels:
hCB1R [1] = biological target: T1, hCB1R (Homo sapiens, UniProt P21554); test: biochemical; type: binding; settings: CHO membranes; Leiden, HU210 and SR144528 from Roche
T1 construct: host or cells: CHO

mCB1R = biological target: T2, mCB1R (Mus musculus, UniProt P47746); test: biochemical; type: binding; settings: mouse brain membranes
T2 construct: from tissue; host or cells: brain of male C57BL/6J mice
T2 sequence (P47746 whole entry): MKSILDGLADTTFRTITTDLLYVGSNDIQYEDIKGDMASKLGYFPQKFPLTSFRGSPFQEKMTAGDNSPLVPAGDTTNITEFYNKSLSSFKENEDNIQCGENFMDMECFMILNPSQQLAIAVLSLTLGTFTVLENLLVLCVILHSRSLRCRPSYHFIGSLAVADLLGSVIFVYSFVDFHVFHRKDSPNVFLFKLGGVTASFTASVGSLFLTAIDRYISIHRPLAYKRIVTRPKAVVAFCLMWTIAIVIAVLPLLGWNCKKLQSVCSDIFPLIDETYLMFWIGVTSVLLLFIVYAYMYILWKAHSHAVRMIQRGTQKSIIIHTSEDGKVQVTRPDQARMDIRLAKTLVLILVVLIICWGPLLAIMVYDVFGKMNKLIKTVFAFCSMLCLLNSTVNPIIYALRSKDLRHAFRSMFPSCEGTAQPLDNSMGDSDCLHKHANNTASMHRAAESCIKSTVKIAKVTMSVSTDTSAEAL

hCB1R [2] = biological target: T1, hCB1R; test: biochemical; type: biochemical
hCB1R [3] = biological target: T1, hCB1R; test: cell-based
hCB1R [4] = biological target: T1, hCB1R; test: cell-based; type: cell-based
[5] = system: AEA cellular uptake in U937 cells; test: cells; type: cell-based, human; settings: for AEA reuptake Efficacy (% inhibition) U937 cells: from dose-response; for IC50: read-out: AEA reuptake IC50 (95% CI) U937 cells
Human recombinant TRPV1 = biological target: T3, Human recombinant TRPV1 (Homo sapiens, UniProt Q8NER1); test: cell-based; type: cell-based; settings: for IC50: read-out: TRPV1 IC50 for antagonism or desensitization; for EC50: read-out: TRPV1 Potency EC50
T3 construct: expressed in transfected cells; host or cells: HEK293 (TRPV1-HEK-293, gift from John Davis, GlaxoSmithKline)
T3 sequence (Q8NER1 whole entry): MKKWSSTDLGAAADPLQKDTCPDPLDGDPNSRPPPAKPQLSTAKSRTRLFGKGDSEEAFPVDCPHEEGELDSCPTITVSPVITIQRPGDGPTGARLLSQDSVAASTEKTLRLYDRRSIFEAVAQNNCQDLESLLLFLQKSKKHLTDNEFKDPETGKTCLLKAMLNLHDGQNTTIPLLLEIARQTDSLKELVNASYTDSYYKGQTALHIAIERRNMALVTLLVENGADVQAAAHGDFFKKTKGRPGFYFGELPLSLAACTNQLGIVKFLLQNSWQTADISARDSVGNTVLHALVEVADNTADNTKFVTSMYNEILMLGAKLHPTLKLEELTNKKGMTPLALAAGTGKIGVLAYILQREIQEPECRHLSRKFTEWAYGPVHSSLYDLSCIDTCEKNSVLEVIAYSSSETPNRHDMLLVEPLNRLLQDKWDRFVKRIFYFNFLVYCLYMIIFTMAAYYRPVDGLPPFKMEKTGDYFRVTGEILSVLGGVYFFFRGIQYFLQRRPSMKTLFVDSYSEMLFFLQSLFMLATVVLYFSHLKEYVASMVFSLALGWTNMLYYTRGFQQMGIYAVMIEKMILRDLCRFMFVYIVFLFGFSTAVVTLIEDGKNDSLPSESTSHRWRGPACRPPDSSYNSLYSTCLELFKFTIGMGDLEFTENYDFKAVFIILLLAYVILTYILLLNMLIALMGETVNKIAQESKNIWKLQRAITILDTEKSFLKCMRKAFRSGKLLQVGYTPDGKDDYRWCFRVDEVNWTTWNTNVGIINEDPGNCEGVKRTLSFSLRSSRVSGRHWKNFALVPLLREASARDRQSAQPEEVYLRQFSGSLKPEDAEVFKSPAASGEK

Rat recombinant TRPV2 = biological target: T4, Rat recombinant TRPV2 (Rattus norvegicus, UniProt Q9WUD2); test: cell-based; type: cell-based; settings: for EC50: read-out: TRPV2 Potency EC50; for IC50: vs LPC 3μM, read-out: TRPV2 IC50 for antagonism or desensitization
T4 construct: expressed in transfected cells; host or cells: HEK293 (plasmid a gift from HB Bradshaw, Indiana University)
T4 sequence (Q9WUD2 1-761): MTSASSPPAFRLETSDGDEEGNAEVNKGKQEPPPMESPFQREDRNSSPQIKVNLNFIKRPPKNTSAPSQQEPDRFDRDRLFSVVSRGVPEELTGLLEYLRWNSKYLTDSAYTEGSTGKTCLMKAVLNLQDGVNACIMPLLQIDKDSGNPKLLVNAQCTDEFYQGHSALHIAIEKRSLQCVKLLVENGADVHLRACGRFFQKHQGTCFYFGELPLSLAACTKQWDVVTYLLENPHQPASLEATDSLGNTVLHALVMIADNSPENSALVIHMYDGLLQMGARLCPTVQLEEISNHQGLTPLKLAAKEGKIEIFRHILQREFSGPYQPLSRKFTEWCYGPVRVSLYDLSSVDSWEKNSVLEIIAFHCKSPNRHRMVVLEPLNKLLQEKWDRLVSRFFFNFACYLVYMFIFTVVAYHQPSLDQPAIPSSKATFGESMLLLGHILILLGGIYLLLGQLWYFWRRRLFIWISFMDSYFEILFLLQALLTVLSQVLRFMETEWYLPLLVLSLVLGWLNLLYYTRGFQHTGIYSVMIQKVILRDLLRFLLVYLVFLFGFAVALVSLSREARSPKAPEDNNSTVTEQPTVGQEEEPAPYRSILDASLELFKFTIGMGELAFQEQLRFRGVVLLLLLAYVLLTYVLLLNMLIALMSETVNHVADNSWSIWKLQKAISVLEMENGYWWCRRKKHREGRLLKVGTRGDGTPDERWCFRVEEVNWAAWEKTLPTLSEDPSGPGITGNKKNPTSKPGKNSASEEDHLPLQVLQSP

alpha 1A (h) = biological target: T5, alpha 1A (h) (Homo sapiens, UniProt P35348); test: CEREP panel; type: binding; settings: 10 µM
T5 construct: CEREP
T5 sequence (P35348 1-466): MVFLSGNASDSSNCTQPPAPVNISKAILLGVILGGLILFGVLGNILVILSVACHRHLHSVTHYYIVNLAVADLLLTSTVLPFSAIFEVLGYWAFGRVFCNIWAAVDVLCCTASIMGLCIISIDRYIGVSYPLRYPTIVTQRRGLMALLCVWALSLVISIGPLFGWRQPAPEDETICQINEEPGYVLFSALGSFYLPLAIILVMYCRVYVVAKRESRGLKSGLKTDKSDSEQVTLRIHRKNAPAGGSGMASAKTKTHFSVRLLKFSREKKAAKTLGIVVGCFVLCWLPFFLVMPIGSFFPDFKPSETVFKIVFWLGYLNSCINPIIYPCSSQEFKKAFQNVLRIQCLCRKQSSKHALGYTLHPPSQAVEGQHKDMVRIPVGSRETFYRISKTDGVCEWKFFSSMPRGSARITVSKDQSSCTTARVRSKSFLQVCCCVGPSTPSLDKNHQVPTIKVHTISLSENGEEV

BZD (central) = type: binding; settings: 10 µM
MT3 (ML2) = biological target: T6, MT3 (ML2) (Mesocricetus auratus, UniProt A0ABM2YAB8); test: CEREP panel; type: binding; settings: 10 µM
T6 construct: CEREP (contract assay)
T6 sequence (A0ABM2YAB8 1-231): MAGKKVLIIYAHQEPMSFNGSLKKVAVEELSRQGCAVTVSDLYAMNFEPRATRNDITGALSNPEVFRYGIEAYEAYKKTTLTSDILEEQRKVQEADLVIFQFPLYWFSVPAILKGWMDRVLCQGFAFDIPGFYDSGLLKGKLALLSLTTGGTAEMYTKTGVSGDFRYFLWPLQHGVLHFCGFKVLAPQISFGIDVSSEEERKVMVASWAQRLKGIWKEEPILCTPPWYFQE

Na+ channel (site 2) = type: binding; settings: 10 µM
PPARα (h) = biological target: T7, PPARα (h) (Homo sapiens, UniProt Q07869); test: CEREP panel; type: binding; settings: 10 µM
T7 construct: CEREP (contract assay)
T7 sequence (Q07869 1-468): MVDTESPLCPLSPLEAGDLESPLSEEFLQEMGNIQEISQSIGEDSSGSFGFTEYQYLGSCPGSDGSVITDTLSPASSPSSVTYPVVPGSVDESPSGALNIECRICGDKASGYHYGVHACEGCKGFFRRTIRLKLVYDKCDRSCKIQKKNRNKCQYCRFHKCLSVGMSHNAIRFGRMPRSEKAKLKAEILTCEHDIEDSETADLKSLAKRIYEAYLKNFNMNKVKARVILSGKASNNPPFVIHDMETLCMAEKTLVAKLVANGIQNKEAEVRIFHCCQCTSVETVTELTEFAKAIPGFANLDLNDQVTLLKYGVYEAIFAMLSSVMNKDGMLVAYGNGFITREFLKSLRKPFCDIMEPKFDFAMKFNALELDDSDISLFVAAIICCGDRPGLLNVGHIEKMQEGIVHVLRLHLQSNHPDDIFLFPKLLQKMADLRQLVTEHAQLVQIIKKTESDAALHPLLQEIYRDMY

[6] = i.v., mice; for C0: 1.0-2.0 mg/kg, extrapolated

T1 sequence (P21554 whole entry): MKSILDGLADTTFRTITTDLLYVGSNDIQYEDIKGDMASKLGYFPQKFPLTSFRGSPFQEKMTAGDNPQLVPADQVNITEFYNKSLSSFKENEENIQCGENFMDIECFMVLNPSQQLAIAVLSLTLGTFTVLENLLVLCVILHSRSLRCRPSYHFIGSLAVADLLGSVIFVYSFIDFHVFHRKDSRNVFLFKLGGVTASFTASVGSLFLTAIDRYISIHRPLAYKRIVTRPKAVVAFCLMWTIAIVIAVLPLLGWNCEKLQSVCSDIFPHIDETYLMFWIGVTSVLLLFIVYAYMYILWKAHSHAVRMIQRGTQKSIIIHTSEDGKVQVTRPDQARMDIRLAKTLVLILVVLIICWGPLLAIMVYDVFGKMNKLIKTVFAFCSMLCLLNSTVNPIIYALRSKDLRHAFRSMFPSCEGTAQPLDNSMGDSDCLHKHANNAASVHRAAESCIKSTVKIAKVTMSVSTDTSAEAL

CN1CCCC[C@H]1Cn1cc(C(=O)c2cc([N+](=O)[O-])ccc2I)c2ccccc21 [(S)-AM1241]
pKi ± SEM hCB1R (hCB1R [1]): < 5 | pKi ± SEM mCB1R (mCB1R): 6.48 ± 0.08 | pEC50 ± SEM GTPγS hCB1R (hCB1R [2]): < 5 | Emax ± SEM cAMP hCB1R (hCB1R [3]): 16 ± 2 | pEC50 ± SEM cAMP hCB1R (hCB1R [3]): < 5 | pEC50 ± SEM GIRK hCB1R (hCB1R [4]): < 5 | Emax ± SEM GIRK hCB1R (hCB1R [4]; normalized to CP55940): 19 ± 3% | AEA reuptake Efficacy (% inhibition) U937 cells [5]: 97% | IC50 [5]: 3.7 µM | TRPV1 Efficacy (% ionomycin 4μM) (Human recombinant TRPV1): 12.0% | IC50 (Human recombinant TRPV1): > 50 µM | EC50 (Human recombinant TRPV1): > 50 µM | TRPV2 Efficacy (% ionomycin 4μM) (Rat recombinant TRPV2): 11.6% | EC50 (Rat recombinant TRPV2): 5 µM | IC50 (Rat recombinant TRPV2): 20.6 µM | % inhibition alpha 1A (h) (alpha 1A (h)): 75% | % inhibition BZD (central) (BZD (central)): -1% | % inhibition MT3 (ML2) (MT3 (ML2)): 49% | % inhibition Na+ channel (site 2) (Na+ channel (site 2)): 87% | % inhibition PPARα (h) (PPARα (h)): -18% | AUCinf [6]: 276 ng·h/mL | AUCinf/dose [6]: 145 kg·ng·h/mL/mg | AUClast [6]: 269 ng·h/mL | CL [6]: 115 mL/min/kg | T1/2 [6]: 1.4 h | C0 [6]: 413 ng/mL

Cc1ccc2c(c1)Cc1c(C(=O)NN3CCCCC3)nn(-c3ccc(Cl)cc3Cl)c1-2 [Gp-1a]
pKi ± SEM hCB1R (hCB1R [1]): 6.97 ± 0.35 | pKi ± SEM mCB1R (mCB1R): 6.37 ± 0.08 | pEC50 ± SEM GTPγS hCB1R (hCB1R [2]): < 5 | Emax ± SEM cAMP hCB1R (hCB1R [3]): 19 ± 5 | pEC50 ± SEM cAMP hCB1R (hCB1R [3]): < 5 | pEC50 ± SEM GIRK hCB1R (hCB1R [4]): 5.26 ± 0.1 | AEA reuptake Efficacy (% inhibition) U937 cells [5]: 64% | IC50 [5]: 1.26 µM | TRPV1 Efficacy (% ionomycin 4μM) (Human recombinant TRPV1): < 10% | IC50 (Human recombinant TRPV1): 3 ± 0.1 µM | TRPV2 Efficacy (% ionomycin 4μM) (Rat recombinant TRPV2): < 10% | IC50 (Rat recombinant TRPV2): 11.9 µM | % inhibition alpha 1A (h) (alpha 1A (h)): 11% | % inhibition BZD (central) (BZD (central)): -10% | % inhibition MT3 (ML2) (MT3 (ML2)): 33% | % inhibition Na+ channel (site 2) (Na+ channel (site 2)): 40% | % inhibition PPARα (h) (PPARα (h)): -9% | AUCinf [6]: 825 ng·h/mL | AUCinf/dose [6]: 412 kg·ng·h/mL/mg | AUClast [6]: 658 ng·h/mL | CL [6]: 40 mL/min/kg | T1/2 [6]: 3.5 h | C0 [6]: 351 ng/mL

CCCn1c(C)c(C(=O)c2cccc3ccccc23)c2ccccc21 [JWH015]
pKi ± SEM mCB1R (mCB1R): 5.94 ± 0.15 | % inhibition alpha 1A (h) (alpha 1A (h)): 16% | % inhibition BZD (central) (BZD (central)): -57% | % inhibition MT3 (ML2) (MT3 (ML2)): 49% | % inhibition Na+ channel (site 2) (Na+ channel (site 2)): 50% | % inhibition PPARα (h) (PPARα (h)): -16% | AUCinf [6]: 174 ng·h/mL | AUCinf/dose [6]: 158 kg·ng·h/mL/mg | AUClast [6]: 163 ng·h/mL | CL [6]: 105 mL/min/kg | T1/2 [6]: 2.6 h | C0 [6]: 438 ng/mL

Cc1c(C(=O)c2cccc3ccccc23)c2cccc3c2n1[C@H](CN1CCOCC1)CO3 [WIN55212-2]
AEA reuptake Efficacy (% inhibition) U937 cells [5]: 52% | IC50 [5]: 4.65 µM | TRPV1 Efficacy (% ionomycin 4μM) (Human recombinant TRPV1): 44.4% | IC50 (Human recombinant TRPV1): 35.8 ± 2.2 µM | EC50 (Human recombinant TRPV1): 19.2 µM | TRPV2 Efficacy (% ionomycin 4μM) (Rat recombinant TRPV2): 17.0% | EC50 (Rat recombinant TRPV2): 14.8 µM | IC50 (Rat recombinant TRPV2): 62 µM | % inhibition alpha 1A (h) (alpha 1A (h)): 15% | % inhibition BZD (central) (BZD (central)): 4% | % inhibition MT3 (ML2) (MT3 (ML2)): 69% | % inhibition Na+ channel (site 2) (Na+ channel (site 2)): 68% | % inhibition PPARα (h) (PPARα (h)): -4%

SR144528
Emax ± SEM GIRK hCB1R (hCB1R [4]): 9 ± 4 | AEA reuptake % inhibition, effect at 10 µM, U937 cells ([5]; 10 µM (values marked *)): 30% | IC50 [5]: > 10 µM | TRPV1 Efficacy (% ionomycin 4μM) (Human recombinant TRPV1): < 10% | TRPV2 Efficacy (% ionomycin 4μM) (Rat recombinant TRPV2): < 10% | % inhibition alpha 1A (h) (alpha 1A (h)): -1% | % inhibition BZD (central) (BZD (central)): -3% | % inhibition MT3 (ML2) (MT3 (ML2)): -21% | % inhibition Na+ channel (site 2) (Na+ channel (site 2)): 34% | % inhibition PPARα (h) (PPARα (h)): -14%
